Results: ChEMBL document CHEMBL2346525, “Diastereotopic and deuterium effects in gemini” (J Med Chem, 2013)
Activity calls are given as the source filed them. The rule behind the calls is not given here.

Species: Homo sapiens
Assay: Cytotoxicity against human ER negative MCF10CA1a cells assessed as growth inhibition after 3 days by [3H]thymidine incorporation assay
Type: functional, cell-based
Settings: tested as the 2H-labelled form

SMILES	growth inhibition (GI)
CC(C)(O)CCCC(CCCC(C)(C)O)[C@H]1CC[C@H]2/C(=C/C=C3C[C@@H](O)C[C@H](O)C3)CCC[C@]12C	Active
C=C1/C(=C\C=C2/CCC[C@]3(C)[C@@H](C(CCCC(C)(C)O)CCCC(C)(C)O)CC[C@@H]23)C[C@@H](O)C[C@@H]1O	Active
